From ChEMBL document CHEMBL1146711, “A facile synthesis of 1-ethoxy-4-cyano-5-ethoxycarbonyl-3H-azuleno[1,2-c]pyran-3-one, a selective 15-lipoxygenase inhibitor” (Bioorg Med Chem Lett, 2004)

Key:
[1] = target: T1, Polyunsaturated fatty acid 5-lipoxygenase (Homo sapiens) (UniProt P09917); assay: Inhibitory concentration against 5-lipoxygenase was determined; No inhibition
T1 sequence (whole entry): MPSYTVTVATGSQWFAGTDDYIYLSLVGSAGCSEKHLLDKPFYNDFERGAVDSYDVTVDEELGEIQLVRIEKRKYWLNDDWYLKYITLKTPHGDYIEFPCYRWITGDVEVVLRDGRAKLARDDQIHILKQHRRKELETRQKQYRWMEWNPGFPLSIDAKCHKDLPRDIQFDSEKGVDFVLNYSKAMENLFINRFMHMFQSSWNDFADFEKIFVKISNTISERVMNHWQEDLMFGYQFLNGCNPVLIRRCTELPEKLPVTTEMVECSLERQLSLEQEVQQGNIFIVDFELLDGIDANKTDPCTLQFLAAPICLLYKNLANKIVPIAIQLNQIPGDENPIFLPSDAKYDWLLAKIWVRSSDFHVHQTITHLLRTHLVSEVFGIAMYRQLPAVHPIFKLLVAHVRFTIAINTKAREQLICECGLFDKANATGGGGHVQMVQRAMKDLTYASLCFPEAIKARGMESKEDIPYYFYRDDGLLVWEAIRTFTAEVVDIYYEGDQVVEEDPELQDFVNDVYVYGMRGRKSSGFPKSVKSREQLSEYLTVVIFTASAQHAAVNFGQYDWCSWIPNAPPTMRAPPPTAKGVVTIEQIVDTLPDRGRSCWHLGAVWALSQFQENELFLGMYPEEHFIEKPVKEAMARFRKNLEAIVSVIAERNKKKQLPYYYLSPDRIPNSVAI

[2] = Inhibitory concentration against lipid peroxidase was determined; No inhibition
[3] = target: Phospholipase A2, major isoenzyme (Sus scrofa) (UniProt P00592); assay: Inhibitory concentration against phospholipase A2; No inhibition
Phospholipase A2, major isoenzyme (Sus scrofa), sequence (P00592 23-146 limits assumed): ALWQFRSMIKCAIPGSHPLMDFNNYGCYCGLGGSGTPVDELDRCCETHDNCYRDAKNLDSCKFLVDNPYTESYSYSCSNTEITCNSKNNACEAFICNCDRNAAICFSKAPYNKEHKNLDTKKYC

[4] = target: Protein kinase C (PKC) (Homo sapiens) (UniProt O94806+P41743+P17252+P05129+Q05655+P05771+Q05513+Q02156+P24723+Q15139+Q04759); assay: Inhibition of protein kinase C (No inhibition); assay type: protein assay
[5] = target: Cyclooxygenase (Homo sapiens) (UniProt P35354+P23219); assay: Inhibitory concentration against prostaglandin G/H synthase; No inhibition; assay type: protein assay

Activity [1] | Activity [2] | Activity [3] | Activity [4] | Activity [5] | SMILES
> 300 µM | > 300 µM | > 300 µM | > 300 µM | > 300 µM | CCOC(=O)c1c2cccccc-2c2c(OCC)oc(=O)c(C#N)c12
– | – | > 300 µM | > 300 µM | > 300 µM | O=C1CCN(c2ccccc2)N1
